A short description of series [1]: GI S9 stability (Ex. Z), cyno intestinal S9. The series is classed as in vitro ADME. As to conditions: cynomolgus monkey, pooled intestinal S9 fractions; cyno intestinal S9, 1.0 mg/mL protein, 2 μM substrate, pH 7.4; read-out: GIS9 Cyno T½ (per Ex. Z). As to the method: (§1) Example Z: GI S9 stability data:
(§2) Stock solutions of test compounds in dimethyl sulfoxide (DMSO) having a final concentration of 10 mM were prepared and used in all experiments. Sekisui XenoTech (Kansas City, KS) provided pooled intestinal S9 fractions. All other chemicals were purchased from Sigma-Aldrich (St. Louis, MO) or VWR (West Chester, PA). Internal Standard/Quench (IS/Q) used to stop reactions was 100 nM labetalol in (by volume) methanol (10%) and acetonitrile (90%).
(§3) Stability in Intestinal S9 Fractions: Duplicate aliquots of test compound or positive control substrate were added to S9 stock diluted with phosphate buffered saline (137 mM NaCl, 2.7 mM KCl, 10 mM phosphate buffer), pH 7.4, to obtain a protein concentration of 1.0 mg/mL. The metabolic reactions were initiated by the addition of the substrates to the S9 reaction mixture to a final concentration of 2 μM. At 0, 10, 20, 30, 60 and 120 min, 25 μL aliquots of the reaction mixture were transferred to plates containing 225 μl of IS/Q solution. After quenching, the plates were centrifuged at 3000×g for 30 minutes. 150 μL aliquots of each supernatant were dried down then reconstituted with 300 μL water. Aliquots (10 μL) of the prepared samples were analyzed on a Thermo Q-Exactive mass spectrometer as described below.
(§4) Liquid Chromatography—Mass Spectrometry: Quantification of test compounds and control substrate was performed by analyte/internal standard peak area ratio (PAR) values measured on a Thermo Q-Exactive mass spectrometer coupled to a Dionex UltiMate 3000 HPLC with a Leap Technologies HTC PAL autosampler. The column used for analysis was a Waters Acquity BEH C18 (1.7 μm particle size, 2.1×50 mm). Mobile phase A consisted of 0.1% (v/v) formic acid in water. Mobile phase B consisted of 0.1% (v/v) formic acid in acetonitrile. Elution of analytes was achieved by a series of linear gradients varying the proportions of A and B. The mass spectrometer was calibrated on a weekly basis and mass tolerance of 5 ppm was used.
(§5) Metabolic stabilities in S9 fractions were determined by measuring the rates of disappearance of test compound and positive control substrate.
(§6) Data (% of substrate remaining) were plotted on a semi-log scale and fitted using an exponential decline model:
(§7) Where Ct—% of substrate remaining at time=t; C0—% of substrate remaining at time=0; t—time; T½—half-life The Half-life (T½) is determined by the following equation: […]
(§8) Assuming a first-order reaction, the slope (k) is extrapolated from the aforementioned plotted data.

A short description of series [2]: GI S9 stability (Ex. Z), rat intestinal S9. The series is classed as in vitro ADME. The following applies: pooled intestinal S9 fractions; rat intestinal S9, 1.0 mg/mL protein, 2 μM substrate, pH 7.4; read-out: GIS9 Rat T½ (per Ex. Z). As to the method:
as §1, §2, §3, §4, §5, §6, §7, §8

For series [3], the system named is Respiratory syncytial virus recombinant with luciferase (RSV-Luc5) in NHBE cells. Description: NHBE RSV-Luc5 384-well Assay (RSV FLUC NHBE 384 V2, Ex. W). It is filed as cell-based. The following applies: human respiratory syncytial virus, 72 h, read-out: EC50 RSV FLUC NHBE 384 V2 (per Ex. W). The text has this:
Example W: NHBE RSV-Luc5 384-well Assay (EC50 RSVFLUC NHBE-384)
Normal Human Bronchial Epithelial (NHBE) cells were purchased from Lonza (Walkersville, MD Cat #CC2540) and maintained in BEGM Bronchial Epithelial Cell Growth Medium BulletKit (Lonza CC-3170).
Cells were thawed, expanded, and were used for experiments at passage 2. Respiratory syncytial virus recombinant with luciferase (RSV-Luc5) (≥1×10^7 Infectious Units/mL (IU/mL) determined by TCID50) was purchased from Microbiologics (Saint Cloud, MN). Viral replication was determined in NHBE cells in the following manner.
(§9) Compounds are prepared in 100% DMSO in 384-well polypropylene plates (Greiner, Monroe, NC, Cat #784201) with 8 compounds per plate in grouped replicates of 4 at 10 serially diluted concentrations (1:3). The serially diluted compounds were transferred to low dead volume Echo plates (Labcyte, Sunnyvale, CA, Cat #LP-0200).
The test compounds were spotted to 384-well assay plates (Greiner, Monroe, NC, Cat#781091) at 200 nL per well using an Echo acoustic dispenser (Labcyte, Sunnyvale, CA). NHBE cells were harvested and suspended in BEGM Bronchial Epithelial Cell Growth Medium BulletKit and seeded to the pre-spotted assay plates at 5,000 cells per well in 30 μL. RSV-Luc5 virus was diluted in BEGM Bronchial Epithelial Cell Growth Medium BulletKit at 500,000 Infectious Units (IU) per mL and 10 μL per well was added to the assay plates containing cells and compounds, for an MOI of 1. The assay plates were incubated for 3 days at 37° C. and 5% CO2. At the end of incubation, One-Glo reagent (Promega, Madison, WI, Cat #E6120) was prepared. The assay plates and One-Glo reagent were equilibrated to room temperature for at least 15 minutes. 40 μL per well of One-Glo reagent was added and the plates were incubated at room temperature for 15 minutes before reading the luminescence signal on an EnVision multimode plate reader (Perkin Elmer, Waltham, MA). Remdesivir was used as positive control and DMSO was used as negative control. Values were normalized to the positive and negative controls (as 0% and 100% replication, respectively) and data was fitted using non-linear regression analysis by Gilead's dose response tool. The EC50 value for each compound was defined as the concentration reducing the viral replication by 50%.

Series [4] in a line: GI S9 stability (Ex. Z), dog intestinal S9. It is filed as in vitro ADME. The following applies: pooled intestinal S9 fractions; dog intestinal S9, 1.0 mg/mL protein, 2 μM substrate, pH 7.4; read-out: GIS9 DOG T½ (per Ex. Z). The protocol:
as §1, §2, §3, §4, §5, §6, §7, §8

The test system of series [5] is Respiratory syncytial virus recombinant with luciferase (RSV-Luc5) in HEp-2 cells. Description: HEp-2 RSV-Luc5 384-well Assay (EC50 RSVFLUC Hep2-384 v2, Ex. V). As to conditions: human respiratory syncytial virus, HEp-2, 72 h, read-out: EC50 RSV FLuc Hep-2 384 V2 (per Ex. V). The series is classed as cell-based.
Excerpt: Example V: HEp-2 RSV-Luc5 384-well Assay (EC50 RSVFLUC Hep2-384 v2)
HEp-2 cell line was purchased from ATCC (Manassas, VA Cat #CCL-23) and maintained in Dulbecco's […] (DMEM) (Corning, New York, NY, Cat #15-018CM) supplemented with 10% fetal bovine serum (FBS) (Hyclone, Logan, UT, Cat #SH30071-03) and 1× Penicillin-Streptonycin-L-Glutamine (Corning, New York, NY, Cat #30-009-CI). Cells were passaged 2 times per week to maintain sub-confluent densities and were used for experiments at passage 5-20. Respiratory syncytial virus recombinant with luciferase (RSV-Luc5) (≥1 ×107 TCID50/ml) was purchased from Microbiologics (Saint Cloud, MN). Viral replication was determined in HEp-2 cells in the following manner.
as §9
The test compounds were spotted to 384-well assay plates (Greiner, Monroe, NC, Cat#781091) at 200 nL per well. HEp-2 cells were harvested and suspended in DMEM (supplemented with 10% FBS and 1× Penicillin-Streptonycin-L-Glutamine) and seeded to the pre-spotted assay plates at 4,000 cells per well in 30 μL. RSV-Luc5 viruses were diluted in DMEM (supplemented with 10% FBS and 1× Penicillin-Streptomycin-L-Glutamine) at 200,000 Infectious Units (IU) per mL and 10 μL per well was added to the assay plates containing cells and compounds, for an MOI=0.5. The assay plates were incubated for 3 days at 37° C. and 5% CO2. At the end of incubation, One-Glo reagent (Promega, Madison, WI, Cat #E6120) was prepared. The assay plates and One-Glo reagent were equilibrated to room temperature for at least 15 minutes. 40 μL per well of One-Glo reagent was added and the plates were incubated at room temp for 15 minutes before reading the luminescence signal on an EnVision multimode plate reader (Perkin Elmer, Waltham, MA). Remdesivir was used as positive control and DMSO was used as negative control. Values were normalized to the positive and negative controls (as 0% and 100% replication, respectively) and data was fitted using non-linear regression analysis by Gilead's dose response tool. The EC50 value for each compound was then determined as the concentration reducing the viral replication by 50%.

From US20240199676A1, “ANTIVIRAL COMPOUNDS AND METHODS OF MAKING AND USING THE SAME” (Gilead Sciences, Inc., priority 2022, published 2024) come the findings set out here.

For `CC(C)C(=O)Nc1ncnn2c([C@@H]3O[C@](C#N)(COC(=O)C(C)C)[C@@H](OC(=O)C(C)C)[C@H]3OC(=O)C(C)C)ccc12` [Compound 21, (2R,3S,4S,5S)-2-cyano-5-(4-isobutyramidopyrrolo[2,1-f][1,2,4]triazin-7-yl)-2-((isobutyryloxy)methyl)tetrahydrofuran-3,4-diyl bis(2-methylpropanoate)], the values for the half-life at 2 μM in series [1], in series [2] and in series [4] were 4 min, 1 min and 5 min, respectively. Moreover, the concentration for a half-maximal effect (EC50) in series [3] is 9.08 µM.

Regarding `CC(=O)Nc1ncnn2c([C@@H]3O[C@](C#N)(COC(C)=O)[C@@H](O)[C@H]3O)ccc12` [Compound 31], the concentration for a half-maximal effect (EC50) in series [5] and in series [3] was 50 µM throughout.

As a reminder, the EC50 is the concentration that produces a half-maximal response.
